pKi: −log10 of the molar value. Some results are limits rather than exact numbers.

T1 sequence (Q9Y5N1 with tags, fused parts or gaps): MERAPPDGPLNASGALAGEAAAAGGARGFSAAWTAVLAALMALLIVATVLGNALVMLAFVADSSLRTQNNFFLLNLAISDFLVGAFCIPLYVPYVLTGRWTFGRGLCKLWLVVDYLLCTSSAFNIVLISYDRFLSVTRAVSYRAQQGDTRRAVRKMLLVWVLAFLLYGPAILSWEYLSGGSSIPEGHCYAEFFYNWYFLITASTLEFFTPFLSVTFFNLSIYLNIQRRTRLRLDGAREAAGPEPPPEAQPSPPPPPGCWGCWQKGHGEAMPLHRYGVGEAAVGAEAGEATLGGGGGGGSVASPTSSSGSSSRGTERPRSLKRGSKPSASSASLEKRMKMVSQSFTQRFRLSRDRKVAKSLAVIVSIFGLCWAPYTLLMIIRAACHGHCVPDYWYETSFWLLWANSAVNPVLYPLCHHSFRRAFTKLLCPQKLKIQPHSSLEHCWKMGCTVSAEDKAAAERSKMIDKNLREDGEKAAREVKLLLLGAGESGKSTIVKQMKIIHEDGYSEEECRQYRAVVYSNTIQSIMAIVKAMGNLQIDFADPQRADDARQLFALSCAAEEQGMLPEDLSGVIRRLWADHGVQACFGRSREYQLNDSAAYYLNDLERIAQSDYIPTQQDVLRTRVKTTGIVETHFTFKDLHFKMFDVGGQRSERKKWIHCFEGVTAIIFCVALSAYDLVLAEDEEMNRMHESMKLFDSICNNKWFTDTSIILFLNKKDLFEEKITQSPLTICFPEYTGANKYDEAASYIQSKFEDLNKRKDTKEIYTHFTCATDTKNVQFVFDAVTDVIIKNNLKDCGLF

The first test has as its target T1, chimeric human H3 receptor (Homo sapiens, UniProt Q9Y5N1).
T1 construct: made in house; host or cells: Sf9 insect cells (baculovirus); P2 membrane preparation
Kind of test: Chimeric human H3 receptor GTP binding assay (agonist-stimulated GTP-gamma35S binding, Example 7). Type of test: biochemical. Conditions: Table I; P2 membranes of Sf9 cells, 1 μM histamine as agonist, Ki from IC50 by Cheng-Prusoff. The method, boiled down: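 Sf9 membranes co-expressing chimeric human H3 receptor and heterotrimeric G-protein, 35 μg/tube, in pH 7.4 Tris buffer with 10 μM GDP. Test compounds (10^−10–10^−6 M) competed against 1 μM histamine, […] GTP-gamma35S, 60 min at room temperature. Filter-bound radioactivity counted; IC50 converted to Ki by Cheng-Prusoff. Agonism/inverse agonism tested without histamine (EC50).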
For the molecule `CC(C)N1CCN(C(=O)CN2CCc3ccccc3C2c2ccccc2Cl)CC1` (centres unmarked) [Compound 59, 1-(2-chlorophenyl)-2-[2-(4-isopropylpiperazin-1-yl)-2-oxoethyl]-1,2,3,4-tetrahydroisoquinoline], the pKi is above 6.00.
For `CC(=O)c1ccc(-c2ccc3c(c2)CCN(CC(=O)N2CCN(C4CCC4)CC2)C3)cc1` [Compound 67, 1-(4-{2-[2-(4-cyclobutylpiperazin-1-yl)-2-oxoethyl]-1,2,3,4-tetrahydroisoquinolin-6-yl}phenyl)ethanone], the pKi was above 6.00.
For the molecule `CC(=O)c1ccc2c(c1)CCN(CC(=O)N1CCN(C3CCC3)CC1)C2` [Compound 61, 1-{2-[2-(4-cyclobutylpiperazin-1-yl)-2-oxoethyl]-1,2,3,4-tetrahydroisoquinolin-6-yl}ethanone], the negative-log Ki (pKi) is above 6.00.
`CC(=O)c1ccc(-c2cnc3n2CCN(CC(=O)N2CCN(C4CCC4)CC2)C3)cc1` [Compound 82, 1-(4-{7-[2-(4-cyclobutylpiperazin-1-yl)-2-oxoethyl]-5,6,7,8-tetrahydroimidazo[1,2-a]pyrazin-3-yl}phenyl)ethanone]: the pKi is above 6.00.

The same test, now with this note: Table II "Ki", symbol *; assay of Example 7.
Regarding `CO[C@H]1CCN(c2ccc3c(n2)CCN(CC(=O)N2CCN(C4CCC4)CC2)C3)C1` [Compound 670, 6-[2-(4-cyclobutylpiperazin-1-yl)-2-oxoethyl]-2-[(3S)-3-methoxypyrrolidin-1-yl]-5,6,7,8-tetrahydro-1,6-naphthyridine], the pKi was above 6.00.
As to `CC(C)C(C)Nc1ccc2c(n1)CCN(CC(=O)N1CCN(C3CCC3)CC1)C2` (centres unmarked) [Compound 661, 6-[2-(4-cyclobutylpiperazin-1-yl)-2-oxoethyl]-N-(1,2-dimethylpropyl)-5,6,7,8-tetrahydro-1,6-naphthyridin-2-amine], the pKi is above 6.00.
For `O=C1CCCN1CCCNc1ccc2c(n1)CCN(CC(=O)N1CCN(C3CCC3)CC1)C2` [Compound 653, 1-[3-({6-[2-(4-cyclobutylpiperazin-1-yl)-2-oxoethyl]-5,6,7,8-tetrahydro-1,6-naphthyridin-2-yl}amino)propyl] pyrrolidin-2-one], the pKi was above 6.00.

Still in this test, the particulars now being: Table II; "*" = Ki in assay of Example 7 less than 1 micromolar.
Take `Cc1cnn(-c2ccc3c(c2)CCN(CC(=O)N2CCN(C4CCC4)CC2)C3)c1` [Compound 217, 2-[2-(4-cyclobutylpiperazin-1-yl)-2-oxoethyl]-6-(4-methyl-1H-pyrazol-1-yl)-1,2,3,4-tetrahydroisoquinoline]: the pKi is above 6.00.
Still for that read-out and setting: in the case of `O=C(CN1CCc2nc(-c3ccccc3)ncc2C1)N1CCN(C2CCC2)CC1` [Compound 247, 6-[2-(4-cyclobutylpiperazin-1-yl)-2-oxoethyl]-2-phenyl-5,6,7,8-tetrahydropyrido[4,3-d]pyrimidine] it was above 6.00; in that of `O=C(CN1CCc2nn(-c3ccc(F)cc3)cc2C1)N1CCN(C2CCC2)CC1` [Compound 236, 5-[2-(4-cyclobutylpiperazin-1-yl)-2-oxoethyl]-2-(4-fluorophenyl)-4,5,6,7-tetrahydro-2H-pyrazolo[4,3-c]pyridine], above 6.00; in that of `O=C(CN1CCc2nc(-c3ccccn3)ncc2C1)N1CCN(C2CCC2)CC1` [Compound 144, 6-[2-(4-cyclobutylpiperazin-1-yl)-2-oxoethyl]-2-pyridin-2-yl-5,6,7,8-tetrahydropyrido[4,3-d]pyrimidine], above 6.00.
On to `CCC1CCC[C@H]2CN(C(=O)CN3CCc4cc(-n5cccn5)ccc4C3)CCN12` (stereo in doubt) [Compound 167, 6-ethyl-2-{[6-(1H-pyrazol-1-yl)-3,4-dihydroisoquinolin-2(1H)-yl]acetyl}octahydro-2H-pyrido[1,2-a]pyrazine], for which the pKi is above 6.00.
For the molecule `Cn1cc(-c2cc3c(s2)CCN(CC(=O)N2CCN(C4CCC4)CC2)C3)ccc1=O` [Compound 270, 5-{5-[2-(4-cyclobutylpiperazin-1-yl)-2-oxoethyl]-4,5,6,7-tetrahydrothieno[3,2-c]pyridin-2-yl}-1-methylpyridin-2(1H)-one], the pKi was above 6.00.
`Cn1cccc(-c2ccc3c(c2)CCN(CC(=O)N2CCN(C4CCC4)CC2)C3)c1=O` [Compound 212, 3-{2-[2-(4-cyclobutylpiperazin-1-yl)-2-oxoethyl]-1,2,3,4-tetrahydroisoquinolin-6-yl}-1-methylpyridin-2(1H)-one]: the pKi was above 6.00.
As to `NC(=O)c1cnn(-c2ccc3c(c2)CCN(CC(=O)N2CCN(C4CCC4)CC2)C3)c1` [Compound 243, 1-{2-[2-(4-cyclobutylpiperazin-1-yl)-2-oxoethyl]-1,2,3,4-tetrahydroisoquinolin-6-yl}-1H-pyrazole-4-carboxamide], the pKi is above 6.00.
In the case of `O=C(CN1CCc2cc(Br)ccc2C1)N1CCN(C2CCC2)CC1` [Compound 118, 6-bromo-2-[2-(4-cyclobutylpiperazin-1-yl)-2-oxoethyl]-1,2,3,4-tetrahydroisoquinoline], the pKi was above 6.00.
The same measure, in the same setting: in the case of `O=C(CN1CCc2c(cnn2-c2cncnc2)C1)N1CCN(C2CCC2)CC1` [Compound 251, 5-[2-(4-cyclobutylpiperazin-1-yl)-2-oxoethyl]-1-pyrimidin-5-yl-4,5,6,7-tetrahydro-1H-pyrazolo[4,3-c]pyridine] it was above 6.00; in that of `CC(=O)c1ccc2c(n1)CCN(CC(=O)N1CCN(C3CCC3)CC1)C2` [Compound 173, 1-{6-[2-(4-cyclobutylpiperazin-1-yl)-2-oxoethyl]-5,6,7,8-tetrahydro-1,6-naphthyridin-2-yl}ethanone], above 6.00; in that of `CC1CN(C(=O)CN2CCc3nc(-c4ccncc4)sc3C2)CCN1C1CCC1` (centres unmarked) [Compound 114, 5-[2-(4-cyclobutyl-3-methylpiperazin-1-yl)-2-oxoethyl]-2-pyridin-4-yl-4,5,6,7-tetrahydro[1,3]thiazolo [5,4-c]pyridine], above 6.00.
With `N#Cc1nc2c(s1)CN(CC(=O)N1CCN(C3CCC3)CC1)CC2` [Compound 102, 5-[2-(4-cyclobutylpiperazin-1-yl)-2-oxoethyl]-4,5,6,7-tetrahydro[1,3]thiazolo [5,4-c]pyridine-2-carbonitrile], the pKi was above 6.00.
Still for that read-out and setting: the result for `O=C(CN1CCc2nc(OC3CCCC3)ccc2C1)N1CCN(C2CCC2)CC1` [Compound 185, 6-[2-(4-cyclobutylpiperazin-1-yl)-2-oxoethyl]-2-(cyclopentyloxy)-5,6,7,8-tetrahydro-1,6-naphthyridine] reads above 6.00; that for `O=C(CN1CCc2nn(-c3ccc(C4CC4)nn3)cc2C1)N1CCN(C2CCC2)CC1` [Compound 260, 5-[2-(4-cyclobutylpiperazin-1-yl)-2-oxoethyl]-2-(6-cyclopropylpyridazin-3-yl)-4,5,6,7-tetrahydro-2H-pyrazolo[4,3-c]pyridine], above 6.00.
As for `O=C(CN1CCc2cc(OCc3ccccc3)ccc2C1)N1CCN(C2CCC2)CC1` [Compound 194, 6-(benzyloxy)-2-[2-(4-cyclobutylpiperazin-1-yl)-2-oxoethyl]-1,2,3,4-tetrahydroisoquinoline], the pKi is above 6.00.
With `O=C(CN1CCc2cc(-n3cc4ccccc4n3)ccc2C1)N1CCN(C2CCC2)CC1` [Compound 229, 2-[2-(4-cyclobutylpiperazin-1-yl)-2-oxoethyl]-6-(2H-indazol-2-yl)-1,2,3,4-tetrahydroisoquinoline], the pKi was above 6.00.
With `CC1CCC[C@H]2CN(C(=O)CN3CCc4cc(-n5ccc(C(F)(F)F)n5)ccc4C3)CCN12` (stereo in doubt) [Compound 158, 6-methyl-2-({6-[3-(trifluoromethyl)-1H-pyrazol-1-yl]-3,4-dihydroisoquinolin-2(1H)-yl}acetyl)octahydro-2H-pyrido[1,2-a]pyrazine], the pKi was above 6.00.

Staying with this test, now noted: Table II; assay of Example 7.
Consider `N#Cc1ccc(-n2cc3c(n2)CCN(CC(=O)N2CCN(C4CCC4)CC2)C3)nc1` [Compound 687, 6-{5-[2-(4-cyclobutylpiperazin-1-yl)-2-oxoethyl]-4,5,6,7-tetrahydro-2H-pyrazolo[4,3-c]pyridin-2-yl}nicotinonitrile], for which the pKi is above 6.00.
The same measure, in the same setting: in the case of `N#CC1CCN(c2ncc3c(n2)CCN(CC(=O)N2CCN(C4CCC4)CC2)C3)CC1` [Compound 690, 1-{6-[2-(4-cyclobutylpiperazin-1-yl)-2-oxoethyl]-5,6,7,8-tetrahydropyrido[4,3-d]pyrimidin-2-yl}piperidine-4-carbonitrile] it was above 6.00.

The same test, now with this note: assay of Example 7; "*" in Ki of Table II.
For the molecule `O=C(CN1CCc2nc(-c3ccccc3)sc2C1)N1CCN(C2CCC2)CC1` [Compound 294, 5-[2-(4-cyclobutylpiperazin-1-yl)-2-oxoethyl]-2-phenyl-4,5,6,7-tetrahydro[1,3]thiazolo [5,4-c]pyridine], the pKi is above 6.00.
Take `CCOC(=O)c1ccc(-c2nc3c(s2)CN(CC(=O)N2CCN(C4CCC4)CC2)CC3)cc1` [Compound 375, ethyl 4-{5-[2-(4-cyclobutylpiperazin-1-yl)-2-oxoethyl]-4,5,6,7-tetrahydro[1,3]thiazolo [5,4-c]pyridin-2-yl}benzoate]: the pKi is above 6.00.
Take `O=C(CN1CCc2nc(-c3ccc4c(c3)OCCO4)sc2C1)N1CCN(C2CCC2)CC1` [Compound 332]: the pKi was above 6.00.
For `O=C(CN1CCc2nc(-c3cc(F)ccc3F)sc2C1)N1CCN(C2CCC2)CC1` [Compound 347, 5-[2-(4-cyclobutylpiperazin-1-yl)-2-oxoethyl]-2-(2,5-difluorophenyl)-4,5,6,7-tetrahydro[1,3]thiazolo [5,4-c]pyridine], the pKi is above 6.00.
For `O=C(CN1CCc2nc(-c3cc(Cl)ccc3Cl)sc2C1)N1CCN(C2CCC2)CC1` [Compound 364, 5-[2-(4-cyclobutylpiperazin-1-yl)-2-oxoethyl]-2-(2,5-dichlorophenyl)-4,5,6,7-tetrahydro[1,3]thiazolo [5,4-c]pyridine], the pKi was above 6.00.

The values above are taken from US20110082130A1 (LIGAND PHARMACEUTICALS, INC., priority 2006, published 2011).
